According to patent US9486474B2, “Interstitial therapy for immediate symptom relief and chronic therapy in interstitial cystitis” (THE REGENTS OF THE UNIVERSITY OF CALIFORNIA, priority 2004, dated 2016):

Key:
IC patients [1] = conditions: intravesical DMSO therapy; cited from earlier work
IC patients [2] = assay: heparin versus PPS in the intravesical therapeutic solution (preliminary data); format: in vivo, human
Text: Data from preliminary studies for one embodiment of an intravesical therapeutic solution can provide immediate temporary relief of the symptoms of urgency and pain in IC patients [Dell and Parsons, Abstract presented at NIDDK/Interstitial Cystitis Association Symposium, Research Insights into Interstitial Cystitis, Alexandria, Va., (Oct. 30-Nov. 1, 2003); Davis, et al. Abstract presented at NIDDK/Interstitial Cystitis Association Symposium, Research Insights into Interstitial Cystitis, Alexandria, Va. (Oct. 30-Nov. 1, 2003); Parsons, Contemp Urol 15: 22-24, 27-28, 31-32, 35 (2003)]. One of the methods of the present invention combines heparin and lidocaine buffered with sodium bicarbonate to pH >8.0 via direct catheter delivery to the bladder, providing immediate and long term pain relief for chronic IC sufferers. In some embodiments, the solution contains 10,000-40,000 units of heparin. In some embodiments, heparin is replaced by 100-200 mg PPS (the contents of an oral capsule dissolved in 10 mL buffered normal saline), 10 mL 1% lidocaine or 16 mL 2% lidocaine, and 3 mL 8.4% sodium bicarbonate (w/v). The solution is instilled into the empty bladder and retained for approximately 30 minutes. The principal difference between this therapeutic solution and other such solutions is the presence of sodium bicarbonate, which dramatically increases the absorption of the lidocaine. […]

IC = conditions: oral PPS, after 8 to 12 months of therapy; cited from earlier work

C[S+](C)[O-] [DMSO, dimethylsulfoxide]
IC patients treated who benefit (IC patients [1]): approximately 50%

heparin
efficacy in the therapeutic solution, heparin compared with PPS (IC patients [2]): equal efficacy

pentosan polysulfate sodium [PPS]
efficacy in the therapeutic solution, heparin compared with PPS (IC patients [2]): equal efficacy | response rate (IC): approximately 70%
